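At the GI50, growth is halved. TGI denotes the concentration required for complete inhibition of growth.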
Assays:
Experiment in all cases: NCI anticancer screen, dose series, 384-well format
786-0 renal = tested on: 786-0 renal
A498 renal = tested on: A498 renal
A549 NSCLC = tested on: A549 NSCLC
ACHN renal = tested on: ACHN renal
BT-549 breast = tested on: BT-549 breast
CAKI-1 renal = tested on: CAKI-1 renal
CCRF-CEM leukemia = tested on: CCRF-CEM leukemia
COLO 205 colon = tested on: COLO 205 colon
DU-145 prostate = tested on: DU-145 prostate
EKVX NSCLC = tested on: EKVX NSCLC
HCC-2998 colon = tested on: HCC-2998 colon
HCT-116 colon = tested on: HCT-116 colon
HCT-15 colon = tested on: HCT-15 colon
HL-60(TB) leukemia = tested on: HL-60(TB) leukemia
HOP-62 NSCLC = tested on: HOP-62 NSCLC
HOP-92 NSCLC = tested on: HOP-92 NSCLC
HS 578T breast = tested on: HS 578T breast
HT29 colon = tested on: HT29 colon
IGROV1 ovarian = tested on: IGROV1 ovarian
K-562 leukemia = tested on: K-562 leukemia
KM12 colon = tested on: KM12 colon
LOX IMVI melanoma = tested on: LOX IMVI melanoma
M14 melanoma = tested on: M14 melanoma
MALME-3M melanoma = tested on: MALME-3M melanoma
MCF7 breast = tested on: MCF7 breast
MDA-MB-231 breast = tested on: MDA-MB-231 breast
MDA-MB-435 melanoma = tested on: MDA-MB-435 melanoma
MDA-MB-468 breast = tested on: MDA-MB-468 breast
MOLT-4 leukemia = tested on: MOLT-4 leukemia
NCI-H226 lung = tested on: NCI-H226 lung
NCI-H23 lung = tested on: NCI-H23 lung
NCI-H322M lung = tested on: NCI-H322M lung
NCI-H460 NSCLC = tested on: NCI-H460 NSCLC
NCI-H522 lung = tested on: NCI-H522 lung
NCI/ADR-RES ovarian = tested on: NCI/ADR-RES ovarian
OVCAR-3 ovarian = tested on: OVCAR-3 ovarian
OVCAR-4 ovarian = tested on: OVCAR-4 ovarian
OVCAR-5 ovarian = tested on: OVCAR-5 ovarian
OVCAR-8 ovarian = tested on: OVCAR-8 ovarian
PC-3 prostate = tested on: PC-3 prostate
RPMI-8226 leukemia = tested on: RPMI-8226 leukemia
RXF 393 renal = tested on: RXF 393 renal
SF-268 CNS = tested on: SF-268 CNS
SF-295 CNS = tested on: SF-295 CNS
SF-539 CNS = tested on: SF-539 CNS
SK-MEL-28 melanoma = tested on: SK-MEL-28 melanoma
SK-MEL-5 melanoma = tested on: SK-MEL-5 melanoma
SK-OV-3 ovarian = tested on: SK-OV-3 ovarian
SN12C renal = tested on: SN12C renal
SNB-19 CNS = tested on: SNB-19 CNS
SNB-75 CNS = tested on: SNB-75 CNS
SR leukemia = tested on: SR leukemia
SW-620 colon = tested on: SW-620 colon
T-47D breast = tested on: T-47D breast
TK-10 renal = tested on: TK-10 renal
U251 glioblastoma = tested on: U251 glioblastoma
UACC-257 melanoma = tested on: UACC-257 melanoma
UO-31 renal = tested on: UO-31 renal

Cc1ccccc1N=Nc1ccc(NC(=O)c2ccnn2C)c(C)c1 showed a GI50 ([…]-0 renal) of 68.8 µM, a TGI (786-0 renal) of over 100 µM and a GI50 (A498 renal) of 90.4 µM. For the same compound, the TGI (A498 renal) was over 100 µM, the GI50 (A549 NSCLC) was over 100 µM and the TGI (A549 NSCLC) was over 100 µM. For the same compound, the GI50 (ACHN renal) was 95.2 µM, the TGI (ACHN renal) was over 100 µM and the GI50 (BT-549 breast) was 48.6 µM. It also gave a TGI (BT-549 breast) of over 100 µM, a GI50 (CAKI-1 renal) of over 100 µM and a TGI (CAKI-1 renal) of over 100 µM. For the same compound, the GI50 (CCRF-CEM leukemia) was 13.8 µM, the TGI (CCRF-CEM leukemia) was over 100 µM and the GI50 (COLO 205 colon) was over 100 µM. It also gave a TGI (COLO 205 colon) of over 100 µM, a GI50 (DU-145 prostate) of over 100 µM and a TGI (DU-145 prostate) of over 100 µM. For the same compound, the GI50 (EKVX NSCLC) was 23.2 µM, the TGI (EKVX NSCLC) was over 100 µM and the GI50 (HCC-2998 colon) was over 100 µM. It also gave a TGI (HCC-2998 colon) of over 100 µM, a GI50 (HCT-116 colon) of 13.1 µM and a TGI (HCT-116 colon) of over 100 µM. It also gave a GI50 (HCT-15 colon) of 54.4 µM, a TGI (HCT-15 colon) of over 100 µM and a GI50 (HL-60(TB) leukemia) of 34.4 µM. The TGI (HL-60(TB) leukemia) was over 100 µM, the GI50 (HOP-62 NSCLC) was 37.2 µM and the TGI (HOP-62 NSCLC) was over 100 µM. For the same compound, the GI50 (HOP-92 NSCLC) was 34.8 µM, the TGI (HOP-92 NSCLC) was over 100 µM and the GI50 (HS 578T breast) was 27.8 µM. The TGI (HS 578T breast) was over 100 µM, the GI50 (HT29 colon) was over 100 µM and the TGI (HT29 colon) was over 100 µM. It also gave a GI50 (IGROV1 ovarian) of over 100 µM, a TGI (IGROV1 ovarian) of over 100 µM and a GI50 (K-562 leukemia) of 7.47 µM. It also gave a TGI (K-562 leukemia) of over 100 µM, a GI50 (KM12 colon) of over 100 µM and a TGI (KM12 colon) of over 100 µM. The GI50 (LOX IMVI melanoma) was 39.4 µM, the TGI (LOX IMVI melanoma) was over 100 µM and the GI50 (M14 melanoma) was over 100 µM. It also gave a TGI (M14 melanoma) of over 100 µM, a GI50 (MALME-3M melanoma) of over 100 µM and a TGI (MALME-3M melanoma) of over 100 µM. It also gave a GI50 (MCF7 breast) of 36.8 µM, a TGI (MCF7 breast) of over 100 µM and a GI50 (MDA-MB-231 breast) of 92.8 µM. The TGI (MDA-MB-231 breast) was over 100 µM, the GI50 (MDA-MB-435 melanoma) was over 100 µM and the TGI (MDA-MB-435 melanoma) was over 100 µM. For the same compound, the GI50 (MDA-MB-468 breast) was 3.87 µM, the TGI (MDA-MB-468 breast) was 59.4 µM and the GI50 (MOLT-4 leukemia) was 30.4 µM. The TGI (MOLT-4 leukemia) was over 100 µM, the GI50 (NCI-H226 lung) was 31.5 µM and the TGI (NCI-H226 lung) was over 100 µM. For the same compound, the GI50 (NCI-H23 lung) was 13.6 µM, the TGI (NCI-H23 lung) was over 100 µM and the GI50 (NCI-H322M lung) was 51.9 µM. For the same compound, the TGI (NCI-H322M lung) was over 100 µM, the GI50 (NCI-H460 NSCLC) was 6.69 µM and the TGI (NCI-H460 NSCLC) was 27.3 µM. For the same compound, the GI50 (NCI-H522 lung) was 15.4 µM, the TGI (NCI-H522 lung) was 93.1 µM and the GI50 (NCI/ADR-RES ovarian) was 6.99 µM. The TGI (NCI/ADR-RES ovarian) was over 100 µM, the GI50 (OVCAR-3 ovarian) was over 100 µM and the TGI (OVCAR-3 ovarian) was over 100 µM. It also gave a GI50 (OVCAR-4 ovarian) of 47.7 µM, a TGI (OVCAR-4 ovarian) of over 100 µM and a GI50 (OVCAR-5 ovarian) of over 100 µM. It also gave a TGI (OVCAR-5 ovarian) of over 100 µM, a GI50 (OVCAR-8 ovarian) of 46.4 µM and a TGI (OVCAR-8 ovarian) of over 100 µM. The GI50 (PC-3 prostate) was over 100 µM, the TGI (PC-3 prostate) was over 100 µM and the GI50 (RPMI-8226 leukemia) was 5.58 µM. The TGI (RPMI-8226 leukemia) was over 100 µM, the GI50 (RXF 393 renal) was 5.29 µM and the TGI (RXF 393 renal) was 23.7 µM. For the same compound, the GI50 (SF-268 CNS) was 96.7 µM, the TGI (SF-268 CNS) was over 100 µM and the GI50 (SF-295 CNS) was 27.1 µM. For the same compound, the TGI (SF-295 CNS) was over 100 µM, the GI50 (SF-539 CNS) was over 100 µM and the TGI (SF-539 CNS) was over 100 µM. For the same compound, the GI50 (SK-MEL-28 melanoma) was over 100 µM, the TGI (SK-MEL-28 melanoma) was over 100 µM and the GI50 (SK-MEL-5 melanoma) was 11.2 µM. The TGI (SK-MEL-5 melanoma) was 87.1 µM, the GI50 (SK-OV-3 ovarian) was over 100 µM and the TGI (SK-OV-3 ovarian) was over 100 µM. The GI50 (SN12C renal) was over 100 µM, the TGI (SN12C renal) was over 100 µM and the GI50 (SNB-19 CNS) was over 100 µM. It also gave a TGI (SNB-19 CNS) of over 100 µM, a GI50 (SNB-75 CNS) of 25.8 µM and a TGI (SNB-75 CNS) of 99.7 µM. It also gave a GI50 (SR leukemia) of 2 µM, a TGI (SR leukemia) of 7.31 µM and a GI50 (SW-620 colon) of over 100 µM. The TGI (SW-620 colon) was over 100 µM, the GI50 (T-47D breast) was 8.3 µM and the TGI (T-47D breast) was over 100 µM. It also gave a GI50 (TK-10 renal) of 63.7 µM, a TGI (TK-10 renal) of over 100 µM and a GI50 (U251 glioblastoma) of 18 µM. The TGI (U251 glioblastoma) was 73.1 µM, the GI50 (UACC-257 melanoma) was 40.2 µM and the TGI (UACC-257 melanoma) was over 100 µM. It also gave a GI50 (UO-31 renal) of over 100 µM and a TGI (UO-31 renal) of over 100 µM.
